Experimental data: ChEMBL document CHEMBL1817609, “SAR studies of 4-pyridyl heterocyclic anilines that selectively induce autophagic cell death in von Hippel-Lindau-deficient renal cell carcinoma cells” (Bioorg Med Chem, 2011)

Columns and labels:
[1] = Growth inhibition of human RCC4 cells after 4 days by XTT assay; format: functional, cell-based; settings: RCC4, 96 h
[2] = Growth inhibition of human RCC4/VHL cells after 4 days by XTT assay; format: functional, cell-based; settings: 96 h
[3] = Selectivity ratio IC50 for human RCC4/VHL cells to IC50 for human RCC4 cells; format: functional

Structure (SMILES)	IC50 ([1]; read-out: pIC50 (converted)) [µM]	IC50 ([1]; read-out: IC50) [µM]	IC50 [2] [µM]	Ratio IC50 [3]
Clc1ccc(Nc2nc(-c3ccncc3)cs2)cc1Cl	13.8			
Cc1cccc(Nc2nc(-c3ccnc(-c4ccncc4)c3)cs2)c1	29.5	28.9	38	1.3
Cc1cccc(Nc2nc(-c3ccncc3-c3ccc(C(C)C)cc3)cs2)c1	40.7	> 40	> 40	
Cc1cccc(Nc2nc(-c3ccncc3)c(CCCN3CCOCC3)s2)c1	5.89			
Cc1cccc(Nc2nc(-c3ccncc3OCCN3CCOCC3)cs2)c1	0.324	0.32	0.88	2.8
Cc1cccc(Nc2nc(-c3ccncc3)c(C(=O)N(C)C)s2)c1	16.2			
Cc1cccc(Nc2nc(-c3cc(Cl)nc(Cl)c3)cs2)c1	15.1			
Cc1cccc(Nc2nc(-c3ccncc3)c(CN(C)C)s2)c1	16.2			
Cc1cccc(Nc2nc(-c3ccncc3C#CCN3CCN(C)CC3)cs2)c1	2.63	2.6	2.2	0.9
Cc1sc(Nc2ccc3c(c2)CCC3)nc1-c1ccncc1	12			
Fc1ccc(Nc2nc(-c3ccncc3)cs2)cc1	6.03			
Cc1cccc(Nc2nc(-c3ccnc(-c4cccc(F)n4)c3)cs2)c1	> 40	> 40	> 40	
Cc1cccc(Nc2nc(-c3ccncc3)n[nH]2)c1	28.8	28.7	22.2	0.8
Cc1cccc(Nc2nc(-c3ccncc3)c(CCCO)s2)c1	3.63			
OCc1sc(Nc2ccccc2)nc1-c1ccncc1	30.2			
Cc1cccc(Nc2nc(-c3ccncc3Cl)cs2)c1	2.95			
Cc1cccc(Nc2nc(-c3ccnc(-c4cccc5[nH]ccc45)c3)cs2)c1	3.16	3.1	4.5	1.5
Cc1cccc(Nc2nc(-c3ccnc(CCCO)c3)cs2)c1	5.25			
Cc1cccc(Nc2nc(-c3ccncc3)c[nH]2)c1	40.7	> 40	> 40	
Cc1cccc(Nc2nc(-c3ccncc3NCCN3CCOCC3)cs2)c1	19.5	19.5	27.9	1.4
Cc1cccc(Nc2nc(-c3ccnc(Br)c3)cs2)c1	2.04			

Structure (SMILES)	IC50 ([1]; read-out: pIC50 (converted)) [µM]	IC50 ([1]; read-out: IC50) [µM]	IC50 [2] [µM]	Ratio IC50 [3]
CC(C)(C)c1cccc(Nc2nc(-c3ccncc3)cs2)c1	60.3			
Brc1cccc(Nc2nc(-c3ccncc3)cs2)c1	40.7			
Cc1cccc(Nc2nc(-c3ccnc(NCCN4CCOCC4)c3)cs2)c1	3.72	3.7	8	2.2
C#Cc1cnccc1-c1csc(Nc2cccc(C)c2)n1	1.38			
Cc1cccc(Nc2nc(-c3ccncc3)co2)c1	40.7	> 40	> 40	
COc1ccc(Nc2nc(-c3ccncc3)cs2)cc1	14.1			
Oc1cccc(Nc2nc(-c3ccncc3)cs2)c1	28.8			
Cc1cccc(Nc2nc(-c3ccnc(-c4cncnc4)c3)cs2)c1	26.9	26.4	37	1.4
Cc1cccc(Nc2nc(-c3ccncc3N3CCN(C)CC3)cs2)c1	2.63	2.6	6.6	2.5
Cc1cccc(Nc2nc(-c3ccnc4ccccc34)cs2)c1	12.3	12.3	20	1.6
Cc1cccc(Nc2nc(-c3ccncc3-c3ccc(C(N)=O)cc3)cs2)c1	4.17	4.1	1.6	
O=[N+]([O-])c1ccccc1Nc1nc(-c2ccncc2)cs1	40.7			
c1ccc(Nc2nc(-c3ccncc3)cs2)cc1	7.08	7	> 70	>10
Cc1cccc(Nc2cccc(-c3ccncc3)c2)c1	37.2	36.9	38.1	1
Cc1cccc(Nc2nc(-c3ccnc(OCCCN(C)C)c3)cs2)c1	6.03	6	8.8	1.5
Cc1cccc(Nc2nc(-c3ccncc3-c3ccncc3)cs2)c1	13.8	13.8	34	2.5
Cc1cccc(Nc2nc(-c3ccnc(OCCN4CCOCC4)c3)cs2)c1	7.08	7	21.1	3
Cc1cccc(Nc2nc(-c3c(C)nc4ccccn34)cs2)c1	9.55	9.5	29.8	3.1
Cc1cccc(Nc2nnc(-c3ccncc3)n2C)c1	40.7	> 40	> 40	
FC(F)(F)c1ccc(Nc2nc(-c3ccncc3)cs2)cc1	40.7			
Cc1cccc(Nc2nc(-c3ccncc3)c(CN3CCOCC3)s2)c1	2.51			

Structure (SMILES)	IC50 ([1]; read-out: pIC50 (converted)) [µM]	IC50 ([1]; read-out: IC50) [µM]	IC50 [2] [µM]	Ratio IC50 [3]
C#Cc1cc(-c2csc(Nc3cccc(C)c3)n2)ccn1	18.2			
Cc1cccc(Nc2nc(-c3ccnc(F)c3)cs2)c1	4.57			
Fc1cccc(Nc2nc(-c3ccncc3)cs2)c1	40.7			
Cc1cccc(Nc2nc(-c3ccncc3)c(CN3CCCCC3)s2)c1	13.2			
OCCc1ccc(Nc2nc(-c3ccncc3)cs2)cc1	5.01			
Cc1ccc(Nc2nc(-c3ccncc3)cs2)cc1O	12			
Clc1ccc(Nc2nc(-c3ccncc3)cs2)cc1	38			
Cc1cc(C)cc(Nc2nc(-c3ccncc3)cs2)c1	4.57			
Cc1cccc(Nc2nnc(-c3ccncc3)o2)c1	40.7	> 40	> 40	
Clc1ccccc1Nc1nc(-c2ccncc2)cs1	28.2			
Cc1cccc(Nc2nc(-c3ccnc(C)c3)cs2)c1	28.8			
Cc1cccc(Nc2nc(-c3ccncc3-c3cn(Cc4ccccc4)nn3)cs2)c1	40.7	> 40	> 40	
Cc1ccc(Nc2nc(-c3ccncc3)cs2)cc1	2.51			
Cc1cccc(Nc2nc(-c3ccncc3C#CCCCO)cs2)c1	6.3	6.3	0.3	
Oc1ccccc1Nc1nc(-c2ccncc2)cs1	12.9			
CN(C)CCc1ccc(Nc2nc(-c3ccncc3)cs2)cc1	50.1			
FC(F)(F)c1ccccc1Nc1nc(-c2ccncc2)cs1	40.7			
COC(=O)C=CC(=O)c1sc(Nc2cccc(C)c2)nc1-c1ccncc1	2.51			
Fc1ccccc1Nc1nc(-c2ccncc2)cs1	14.5			
CC(C)c1cccc(Nc2nc(-c3ccncc3)cs2)c1	17.4			
CN(C)CCOc1ccc(Nc2nc(-c3ccncc3)cs2)cc1	60.3			

Structure (SMILES)	IC50 ([1]; read-out: pIC50 (converted)) [µM]	IC50 ([1]; read-out: IC50) [µM]	IC50 [2] [µM]	Ratio IC50 [3]
CCc1cccc(Nc2nc(-c3ccncc3)cs2)c1	2.51			
Cc1cccc(Nc2nc(-c3ccncc3CCCO)cs2)c1	6.92			
c1cc(-c2csc(Nc3ccc4c(c3)CCC4)n2)ccn1	2.04			
Cc1cccc(Nc2nc(-c3ccnc(Cl)c3)cs2)c1	2.24			
CCc1cnccc1-c1csc(Nc2cccc(C)c2)n1	6.31			
Oc1ccc(Nc2nc(-c3ccncc3)cs2)cc1	5.37			
Cc1cccc(Nc2nc(-c3ccncc3)c(C(N)=O)s2)c1	19.5			
COc1cccc(Nc2nc(-c3ccncc3)cs2)c1	3.02			
Cc1cccc(Nc2nc(-c3ccncc3C)cs2)c1	5.25			
Cc1cccc(Nc2nc(-c3ccncc3Br)cs2)c1	3.98			
Cc1cccc(N(C)c2nc(-c3ccncc3)cs2)c1	28.2			
Clc1cccc(Nc2nc(-c3ccncc3)cs2)c1	3.02			
Cc1cccc(Nc2nc(-c3ccncc3)c(C)s2)c1	10			
Cc1cc(Nc2nc(-c3ccncc3)cs2)ccc1O	70.8			
COc1ccc(Nc2nc(-c3ccncc3)cs2)cc1OC	24.5			
CCN(c1cccc(C)c1)c1nc(-c2ccncc2)cs1	40.7			
CCc1cc(-c2csc(Nc3cccc(C)c3)n2)ccn1	6.46			
COc1ccccc1Nc1nc(-c2ccncc2)cs1	33.9			
Cc1ccc(Nc2nc(-c3ccncc3)cs2)cc1C	6.61			
